For `CN(CCOc1ccc(CC(Sc2ccc(Cl)cc2)C(=O)O)cc1)c1nc2ccccc2o1` (configuration not stated), which melting point is on record?
The melting point was 156 to 157 °C.

With `CCN(C(=O)C1CC1)c1cccc(-c2ccnc3c(C#N)cnn23)c1` as the compound, how does the melting point read?
The melting point was 166 to 168 °C.

With `CC1=CC2Cc3[nH]c(=O)ccc3C3(C1)NCCCC23` (configuration not stated) as the compound, how does the melting point read?
Its melting point is 270 to 271 °C.

Which melting point does the source give for `CC12C=CCC1C1CCC3=C(CCC(=O)C3)C1CC2` (configuration not stated) here?
The melting point was 112 to 116 °C.

Which melting point does the source give for `OCC1OC(OC2C(CO)OC(CO)C2O)C(O)C(O)C1O` (configuration not stated) here?
The melting point was 162 to 164 °C.

With `CCCN(CCC)S(=O)(=O)c1cccc(C(=O)Nc2ccc(Br)cc2C)c1` as the compound, how does the melting point read?
Its melting point is 135 to 136 °C.

Which melting point does the source give for `COc1cccc(CCSc2c(O)cc(-c3ccccc3)oc2=O)c1` here?
The melting point was 112 to 113 °C.

For `CCNC(=O)/C=C1\CCc2ccc(F)cc21`, which melting point is on record?
Its melting point is 125 to 127 °C.

With `Cc1ccc2nc(S)sc2c1` as the compound, how does the melting point read?
Its melting point is 179 to 181 °C.

With `Cc1ccc(Cn2c(=O)c3c(Cl)cc(Cl)cc3n(Cc3ccccc3)c2=O)o1` as the compound, how does the melting point read?
Its melting point is 159 to 161 °C.

With `COc1ccc(-c2nc(-c3ccccn3)cs2)cc1` as the compound, how does the melting point read?
Its melting point is 100 to 103 °C.

Which melting point does the source give for `CCCCNC(=N)NC(=O)NCCCC` here?
Its melting point is 82 to 94 °C.

Which melting point does the source give for `COC(=O)c1ccc2c(c1)C(SCCO)c1ccccc1CO2` (configuration not stated) here?
Its melting point is 128 to 130 °C.

Which melting point does the source give for `CCCC1(C)C(=O)NC(=O)N1c1ccc(C)cc1` (configuration not stated) here?
Its melting point is 158 °C.

Which melting point does the source give for `COc1cc2ncnc(Nc3cccc(Br)c3)c2cc1OCC1CO1` (configuration not stated) here?
Its melting point is 230 to 245 °C.

Which melting point does the source give for `C=Cc1ccc(-c2ccc(OC(C)=O)cc2)cc1` here?
Its melting point is 119 to 122 °C.

Which melting point does the source give for `Cc1ccc2c(c1)N(CC(=O)c1ccccc1C)C(=O)C(NC(=O)Nc1cccc(C(=O)O)c1)CN2C(=O)c1cccs1` (configuration not stated) here?
Its melting point is 219 to 222 °C.

With `COc1cc(C(=O)CC(=O)c2ccc(O)cc2O)cc(OC)c1OC` as the compound, how does the melting point read?
Its melting point is 284 to 286 °C.

Which melting point does the source give for `Cc1cc(C)c(C=CC#N)c(Br)c1` here?
Its melting point is 95 to 96 °C.

With `OC(Cc1ccncc1)(c1ccc(F)cc1)c1ccc(F)cc1` as the compound, how does the melting point read?
The melting point was 158 to 160 °C.

Which melting point does the source give for `COCCOc1ccc2c(=O)c(C#N)c[nH]c2c1` here?
Its melting point is over 250 °C.

For `c1ccc2c(CN3CCN(Cc4ccc5c(c4)OCO5)CC3)n[nH]c2c1`, which melting point is on record?
Its melting point is 175 to 176 °C.

For `C=C(COC)c1ccc(NC(=O)N(C)C)cc1`, which melting point is on record?
Its melting point is 96 to 97 °C.

Which melting point does the source give for `CN(CCCc1ccc(F)cc1)[C@H]1CC[C@H](c2ccc3[nH]c(=O)oc3c2)CC1` here?
Its melting point is 62 to 65 °C.

Which melting point does the source give for `On1nc(Br)c(Cl)c1Br` here?
Its melting point is 160 °C.

With `CCCc1cc(CCCCC(=O)O)ccc1OC` as the compound, how does the melting point read?
The melting point was 84 °C.

For `CCCCC#CCCOc1cc(/C=C/C(=O)Nc2ccccc2C(=O)O)ccc1OC`, which melting point is on record?
The melting point was 157 to 158 °C.

For `Cc1ccc(-c2ccc(S(C)(=O)=O)cc2)n1CC(C)(C)S`, which melting point is on record?
The melting point was 124 to 126 °C.

With `Cc1cccc2c(N3CCSCC3)nc(Cl)cc12` as the compound, how does the melting point read?
The melting point was 134 to 136 °C.

With `Cc1cc(C=Cc2ccccc2OCC(O)C(N)C(C)C)on1` (configuration not stated) as the compound, how does the melting point read?
The melting point was 106 to 108 °C.

For `O=C(O)c1cc(NC(=O)C(CS)Cc2ccccc2)c[nH]1` (configuration not stated), which melting point is on record?
Its melting point is 169 to 172 °C.

Which melting point does the source give for `O=C(O)CN(Cc1cccc(Cn2cc(C3c4ccccc4C=Cc4ccccc43)c(=S)[nH]c2=O)c1)C(=O)OCc1ccccc1` here?
The melting point was 120 °C.

For `COCCOc1cc2cc(C(=O)OC)c(C(=O)OC)c(-c3ccncc3)c2cc1OC`, which melting point is on record?
Its melting point is 156 to 158 °C.

Which melting point does the source give for `CCCN(CCC)c1nsc(N)c1C#N` here?
The melting point was 136 to 138 °C.

With `Nc1c2c(nc3ccccc13)CCS2` as the compound, how does the melting point read?
The melting point was 210 to 212 °C.

Which melting point does the source give for `Cn1cc(-c2ncc(OC3SCC(O)C(O)C3O)cc2F)cn1` (configuration not stated) here?
Its melting point is 206 °C.

With `CCOc1cc(Cn2[nH]c(N)cc2=O)ccc1Cl` as the compound, how does the melting point read?
Its melting point is 143 °C.

Which melting point does the source give for `COC(=O)c1ccc(=O)n(CCNC(=O)c2cnccn2)c1` here?
Its melting point is 195 to 197 °C.

For `CCCCNc1ncc2ccc(=O)n(C)c2n1`, which melting point is on record?
The melting point was 146 to 147 °C.

For `CS(=O)(=O)c1ccc(C(CC2CCOCC2)c2ccc(-c3nnc(CO)s3)[nH]2)cc1` (configuration not stated), which melting point is on record?
The melting point was 199 to 201 °C.

Which melting point does the source give for `CN1CCN(C2CCCc3nc4ccccc4c(N)c32)CC1` (configuration not stated) here?
The melting point was 200 to 202 °C.

For `C=CCN1CC(c2ccccc2)=C(OCCN(C)C)C1=O`, which melting point is on record?
Its melting point is 115 to 117 °C.

For `CN(C)C1CCc2[nH]c3c(C#N)cccc3c2C1` (configuration not stated), which melting point is on record?
The melting point was 177 to 179 °C.

For `CS(=O)(=O)Nc1cc2occ(C=Cc3ccccc3)c(=O)c2cc1Oc1ccccc1`, which melting point is on record?
The melting point was 174 to 175 °C.

For `O=C(O)CCCCCCCSc1ccc(Cl)cc1`, which melting point is on record?
The melting point was 92 to 93 °C.

Which melting point does the source give for `Clc1cccnc1-c1ccc2[nH]nc(Nc3ncc(CN4CCOCC4)s3)c2c1` here?
The melting point was 217 °C.

For `C=CC[C@H]1C[C@@](OS(C)(=O)=O)(C(=O)OC)C[C@@H](OC(=O)c2ccccc2)[C@@H]1O`, which melting point is on record?
Its melting point is 46 to 47 °C.

Which melting point does the source give for `CCCN(CCCc1csc2ccc(F)cc12)C1COc2cccc(OC)c2C1` (configuration not stated) here?
The melting point was 78 °C.

Which melting point does the source give for `O=[N+]([O-])c1cc2c(Cl)ncnc2cc1F` here?
Its melting point is 116 to 118 °C.

With `COc1ccccc1OCCCc1oc(-n2ccnc2C)nc1-c1ccc(Cl)cc1` as the compound, how does the melting point read?
The melting point was 84 to 85 °C.

Which melting point does the source give for `COc1ccc(C2CNC(=O)C2)cc1OS(=O)(=O)C(F)(F)F` (configuration not stated) here?
The melting point was 99 to 101 °C.

With `COc1ccc(-c2cc(C#N)c[nH]2)c(OC)c1` as the compound, how does the melting point read?
Its melting point is 129 to 130 °C.
